Assay results taken from patent US8563571B2, “Crystalline forms of oxymorphone hydrochloride” (Noramco, Inc., priority 2010, dated 2013).

How the values were obtained:
[1] = Physical stability at ambient temperature storage (re-analysis of crystalline form)
[2] = Dynamic vapor moisture sorption/desorption analysis; type: physicochemical; conditions: for Moisture uptake by weight: between 75% and 95% RH, sorption; for hysteresis during the desorption cycle: desorption cycle (Form B: between 45% RH and 5% RH); for relative humidity above which hygroscopicity was exhibited: dynamic vapor sorption/desorption, 5% to 95% RH
Procedure: Dynamic vapor sorption/desorption data were collected on a VTI SGA-100 Vapor Sorption Analyzer. Sorption and desorption data were collected over a range of 5% to 95% relative humidity (RH) at 10% RH intervals under a nitrogen purge. Samples were not dried prior to analysis. Equilibrium criteria used for analysis were less than 0.0100% weight change in 5 minutes, with a maximum equilibration time of 3 hours if the weight criterion was not met. Data were not corrected for the initial moisture content of the samples. NaCl and PVP were used as calibration standards.
Dynamic vapor moisture sorption/desorption data was collected for representative samples for oxymorphone HCl Form A and Form B, as shown in FIG. 13 and FIG. 16, respectively.

[3] = Mechanical grinding studies (physical stability of crystalline form)
[4] = re-analyzed after approximately 12 months

## CN1CC[C@]23c4c5ccc(O)c4O[C@H]2C(=O)CC[C@@]3(O)[C@H]1C5.Cl [Form L, 4,5-epoxy-3,14-dihydroxy-17-methyl-(5α)-morphinan-6-one hydrochloride (1:1)]
[1]; after approximately 10 weeks
  crystalline form(s) converted to on ambient temperature storage: a mixture of crystalline forms, one of which is Form A (a sesquihydrate) and the other is a monohydrate/hemi-ethanolate
  stability at ambient temperature storage: unstable

## CN1CC[C@]23c4c5ccc(O)c4O[C@H]2C(=O)CC[C@@]3(O)[C@H]1C5.Cl [Form B, 4,5-epoxy-3,14-dihydroxy-17-methyl-(5α)-morphinan-6-one hydrochloride (1:1)]
[2]
  Moisture uptake by weight: about 43%
  hysteresis during the desorption cycle: no hysteresis was observed
  relative humidity above which hygroscopicity was exhibited: above 75%
[2]; end of desorption cycle
  moisture content at the end of the cycle (in words): returned to the initial moisture content
[3]; in the presence of a small quantity of water
  physical stability under mechanical grinding: physically stable
[3]; mechanically ground in the absence of water
  physical stability under mechanical grinding: partially converted to Form A

## CN1CC[C@]23c4c5ccc(O)c4O[C@H]2C(=O)CC[C@@]3(O)[C@H]1C5.Cl [Form D, 4,5-epoxy-3,14-dihydroxy-17-methyl-(5α)-morphinan-6-one hydrochloride (1:1)]
[1]; after approximately 12 months
  crystalline form(s) converted to on ambient temperature storage: a mixture of Form A and Form B
[1]; [4]
  stability at ambient temperature storage: unstable

## CN1CC[C@]23c4c5ccc(O)c4O[C@H]2C(=O)CC[C@@]3(O)[C@H]1C5.Cl [Form F, 4,5-epoxy-3,14-dihydroxy-17-methyl-(5α)-morphinan-6-one hydrochloride (1:1)]
[1]; after approximately 10 months
  crystalline form(s) converted to on ambient temperature storage: converting to Form A
  stability at ambient temperature storage: unstable

## CN1CC[C@]23c4c5ccc(O)c4O[C@H]2C(=O)CC[C@@]3(O)[C@H]1C5.Cl [Form A, 4,5-epoxy-3,14-dihydroxy-17-methyl-(5α)-morphinan-6-one hydrochloride (1:1), reference compound]
[2]; at 5% RH, end of cycle
  moisture retained at the end of the desorption cycle: 2.4%
[2]
  Moisture uptake by weight: about 50%
  hysteresis during the desorption cycle: hysteresis was observed
  relative humidity above which hygroscopicity was exhibited: above 75%

## CN1CC[C@]23c4c5ccc(O)c4O[C@H]2C(=O)CC[C@@]3(O)[C@H]1C5.Cl [Form C, 4,5-epoxy-3,14-dihydroxy-17-methyl-(5α)-morphinan-6-one hydrochloride (1:1)]
[1]; Example 8 sample, storage time not given
  form found on re-analysis by pXRD after storage in ambient conditions: remain Form C
[1]; [4]
  stability at ambient temperature storage: stable
